Measurements as given in patent publication US20160123988A1, “METHOD OF TRACELESS LABELING GLYCOPROTEINS ON SURFACE AND APPLICATION THEREOF” (NATIONAL SUN YAT-SEN UNIVERSITY, priority 2014, published 2016).

Tests used:
[1] = target: T1, RNase B (Bos taurus, UniProt P61823); assay: Immobilization of RNase B on functionalized slides, read out with Con A-FITC fluorescence; type: biochemical, bovine; details: for Con A-FITC signal of RNase B on probe-functionalized slides: slides incubated with RNase B then treated with glycerol, compared to BA-tosyl-treated slides, FIG. 6(b), 6(c); for Con A-FITC intensity after release of BA-tosylate by polyol: RNase B on BA-tosyl slides, glycerol 10%, sorbitol 100 mM, compared to galactose 100 mM, FIG. 6(a)
T1 construct: Fetuin (from fetal calf serum) and RNase B (from bovine pancreas) were purchased from Sigma-Aldrich; purchased Sigma-Aldrich; host or cells: bovine pancreas (natural source)
T1 sequence (P61823 27-150): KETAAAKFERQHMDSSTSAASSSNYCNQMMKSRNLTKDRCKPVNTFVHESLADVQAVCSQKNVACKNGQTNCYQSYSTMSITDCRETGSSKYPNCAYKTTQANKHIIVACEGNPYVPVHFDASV
Protocol: The aforementioned azide-functionalized slide was rinsed twice with sodium phosphate buffer (25 mM, pH 8.0) and immersed in the same buffer (45 mL). To effect the Cu(I)-catalyzed 1,2,3-triazole cycloaddition, BA-tosyl 1 (or compound 7 or 8) was added to the reaction mixture to afford a final concentration of 5 mM and treated with TCEP (2 mM) and TBTA (2 mM). Then, an aqueous solution of CuSO 4 (100 mM) was added to the reaction mixture to give a final concentration of 4 mM, and the mixture was allowed to react at RT. After 12 h, the slide was washed three times with PBS and twice with distilled deionized water (ddH2O) to obtain BA-tosyl 1 (or compound 7 or 8)-functionalized slides.
Fluorescein-labeled lectins (Con A-FITC and WGA-FITC, 10 μM in PBS containing 5 mM CaCl2 and 5 mM MnCl2) were incubated with the glycoprotein microarray at RT for 1 h. Then, the slide was washed three times with PBS containing 10% glycerol and twice with ddH2O. Finally, the slide was dried under warm air and subjected to fluorescence analysis.
To quantitatively evaluate the protein-glycoprotein interactions, the lectin-glycoprotein complexes were analyzed by measuring the fluorescence intensities of the fluorescein tags. The fluorescence signals were directly detected by a NovaRay Microarray Scanner with an FITC filter, and were subsequently analyzed using ArrayVision software.
Glycoproteins in ddH2O containing 20% dimethyl sulfoxide (DMSO) were spotted onto the surface of the functionalized slide. To immobilize glycoproteins on the slides, an AD1500 arrayer (Biodot) was used to print samples of interest onto the functionalized slide with a spot volume of 20 nL under 85% relative humidity at 25° C. The protein sample was allowed to incubate at 25° C. for 12 h, and the glycoprotein solution was then removed by decanting the reaction mixture. The slide was incubated with ddH2O containing 10% glycerol for 30 min, followed by washing twice with the same solution (ddH2O with 10% glycerol). The slide was further treated with 10 mM imidazole solution (Tris buffer, 10 mM NaCl, pH 7.4) for 30 min to block unreacted BA-tosyl groups. The obtained glycoprotein micro-array was then washed three times by PBS (pH 7.4) and was ready for advanced use.
To evaluate the details of the immobilization mechanism, ribonuclease B (RNase B), carrying a single N-glycan chain composed of high mannose isomers, was spotted onto BA-tosyl-functionalized slides and allowed to incubate at 25° C. for 12 h. The slides were then individually treated with three different polyols in phosphate buffered saline (PBS) to competitively release the BA-tosylate. Glycerol (10%), galactose (100 mM), and sorbitol (100 mM) were used. […]

[2] = target: T2, fetuins (Bos taurus, UniProt P12763); assay: Labeling of fetuins by probes, biotinylation, SDS-PAGE and Western blotting with anti-biotin antibody; type: biochemical, calf; details: probe 40 μM, fetuins 20 μM, 37° C., 48 h; FIG. 3
T2 construct: Fetuin (from fetal calf serum) and RNase B (from bovine pancreas) were purchased from Sigma-Aldrich; purchased Sigma-Aldrich; host or cells: fetal calf serum (natural source)
T2 sequence (P12763 19-359): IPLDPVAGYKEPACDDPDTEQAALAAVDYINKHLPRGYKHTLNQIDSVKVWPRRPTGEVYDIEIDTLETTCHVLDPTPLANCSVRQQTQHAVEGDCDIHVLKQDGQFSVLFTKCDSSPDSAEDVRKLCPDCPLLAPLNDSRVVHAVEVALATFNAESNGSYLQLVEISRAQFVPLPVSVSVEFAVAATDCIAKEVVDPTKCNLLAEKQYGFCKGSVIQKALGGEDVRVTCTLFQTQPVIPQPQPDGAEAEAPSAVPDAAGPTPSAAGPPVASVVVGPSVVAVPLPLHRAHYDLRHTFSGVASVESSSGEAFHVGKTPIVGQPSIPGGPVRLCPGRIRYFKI
Protocol: A solution of fetuins (10 μM) was incubated with BA-tosyl probes 1-3 (50 μM) in PBS buffer (0.1 M, pH 8.0) at 37° C. for 48 h. Then, the unreacted BA-tosyl probes were removed by centrifugal filtration (Amicon Ultra-0.5 mL 10K) at 15,000 rpm, followed by washing five times with PBS buffer (300 μL). The resultant alkyne-tagged fetuins (11.53 μL, 26.28 μg/μL) were collected and treated with azido biotin (20 μL, 1 mM) in PBS buffer (44.47 μL, pH 8.0, 0.1 M). Then, the mixture was treated with tris(carboxyethyl)phosphine (TCEP, 0.1 M, 2 μL) and tris[(1-benzyl-1H-1,2,3-triazol-4-yl)methyl]amine (TBTA, 0.01 M, 20 μL) with gentle shaking. After homogeneous mixing, CuSO4 (0.1 M, 2 μL) was added, and the reaction mixture was shaken at RT for 12 h. The excess reactants were removed by centrifugal filtration at 15,000 rpm, and the biotinylated fetuins were obtained.
To evaluate the specificity of synthetic BA-tosyl probes, BA-tosyl 1-3, aniline-tosyl 7, and BA-alkyne 8 (40 μM) were incubated with fetuins (20 μM), blood glycoproteins carrying triantennary glycan chains with terminal N-acetylneuraminic acids, at 37° C. for 48 h. The unreacted chemical probes were then removed by centrifugal filtration or size-exclusion column chromatography to obtain the alkyne-labeled fetuins. Azido biotin was then used to form biotinylated fetuins via Cu(I)-catalyzed 1,2,3-triazole cycloaddition. […]

Con A-FITC signal of RNase B on probe-functionalized slides [1]	Con A-FITC signal of RNase B on probe-functionalized slides ([1]; listed as 7)	Western blot band of biotin-labeled fetuins (labeling of fetuin) [2]	Con A-FITC intensity after release of BA-tosylate by polyol [1]	Structure (SMILES)
very low signal intensity	nearly background-level signals	much weaker signal		C#CCCCOS(=O)(=O)c1cc(C=O)cc(C(=O)Nc2ccccc2)c1 [aniline-tosyl 7]
			twice the intensity	OCC(O)CO [glycerol]
			twice the intensity	OC[C@@H](O)[C@@H](O)[C@H](O)[C@@H](O)CO [sorbitol]
